pEC50: −log10 of the molar value. Like-named read-outs stand apart in the source and are kept apart here.
Experiments:
ABCA1 protein = assay: Detection of upregulation of ABCA1 protein in THP-1 macrophage cells (ApoA-I binding, high content imaging); assay type: cell-based; settings: 24 hrs with compound, AlexaFluor 647 ApoA-I binding, read-out: ABCA1 protein increasing efficacy EC50
Protocol: The ability of compounds of the invention to increase the level of ABCA1 protein is determined in replicate cultures of THP-1 macrophage cells in 96-well microplates. Cells are plated at an initial density of 100,000 cells/well in 100 μl medium and differentiated to adherent macrophages with the addition of PMA (100 nM) for 68 hrs in 10% fetal bovine serum, 3 μl/L of b-mercaptoethanol, RPMI-1640 medium. Then, cells are incubated with RPMI-1640 medium containing 1% FCS, 25 μg/ml acetylated LDL, for 24 hours at 37°. Following incubation with acetylated LDL, cells are washed twice with 50 μl PBS and incubated with 100 μl of RPMI-1640 medium containing the compound of interest solubilized in DMSO for an additional 24 hrs. The final DMSO concentration in presence of cells is maintained at 0.5%. ApoA-I binding assay using High Content Image Analysis is initiated by replacing with fresh medium, RPMI without Phenol Red, 0.2% BSA containing AlexaFluor®647 labeled ApoA-I for 2 h/37° C./5% CO2. Then, cells are fixed with 4% Formaldehyde in PBS (15 min, RT). Following Nuclei are stained with Hoechst solution (3 μM PBS) and Cytoplasm with Cell Mask Blue (2 μg/ml PBS), 15 min, RT. Finally the stained cells are fixed with a second round of formaldehyde treatment. Fixed stained cells are washed and kept in PBS at 4° C. and can be read immediately until one month after preparation.
The Alexa Fluor 647-labeled Apolipoprotein A-I (20 nM) was prepared as follows: Human recombinant Apolipoprotein A-I (ApoA-I) was exchanged to a buffer of 0.02 M NaHCO3 at pH 8.2 on an NAP desalting column (GE Healthcare) and brought to a concentration to 40 μM (1.13 mg/ml) by adjustment with the same buffer. The ApoA-I was fluorescently labeled by incubation with Alexa Fluor carboxylic acid succimidyl ester. (Alexa Fluor 647, Invitrogen A-20006) at a 2:1 molar ratio (Alexa to ApoA-I) for 1 h under shaking at RT. The remaining unconjugated label was removed by buffer exchange to 0.02M NaHCO3 at pH 8.2.
Imaging and data collection were performed on an OPERA confocal microplate imaging reader using a 20× water immersion objective and UV360 or 405 laser to identify the cell nuclei and a 635 laser to identify the fluorescent ApoA-I. Eight fields of view are captured per well. Image capture and analysis was performed with the Acapella software. Background fluorescence detected in control wells without ApoA-I was subtracted.
Using XLfit3 program (ID Business Solutions Ltd. UK), the model 205 for Dose Response One Site is used to calculate the EC50 values. […] Preferably, the compounds of the present invention have EC50 values in a range of 0.1 μM to 3 μM.

human CB1 receptor = biological target: T1, human CB1 receptor (Homo sapiens, UniProt P21554); assay: CB1 receptor affinity, [3H]-CP-55,940 displacement, HEK cell membranes; assay type: binding; settings: read-out: CB1 receptor affinity [% inhibition @ 10 μM]
T1 construct: expressed in transfected cells; host or cells: human embryonic kidney (HEK) cells, Semliki Forest Virus system, membrane preparations
Protocol: (§1) The affinity of the compounds of the invention for cannabinoid receptors was determined using membrane preparations of human embryonic kidney (HEK) cells in which the human CB1 receptor is transiently transfected using a Semliki Forest Virus system in conjunction with [3H]-CP-55,940 as radioligand. After incubation of freshly prepared cell membrane preparation with the [^3H]-ligand, with or without addition of compounds of the invention, separation of bound and free ligand was performed by filtration over glass fiber filters. Radioactivity on the filter was measured by scintillation counting.
(§2) The ability of the compounds to displace the radioligand [^3H]-CP-55,940 was measured at a concentration of 10 μM and values provided as [% inhibition @ 10 μM] both for the CB 1 and CB2 receptor assay, The lower % inhibition is, the lower the likelihood of side effects based on CB1 or CB2 receptor inhibition is.

human CB2 receptor = biological target: T2, human CB2 receptor (Homo sapiens, UniProt P34972); assay: CB2 receptor affinity, [3H]-CP-55,940 displacement, HEK cell membranes; assay type: binding; settings: 10 μM compound, radioligand [3H]-CP-55,940
T2 construct: expressed in transfected cells; host or cells: human embryonic kidney (HEK) cells, Semliki Forest Virus system, membrane preparations
Protocol: as §1, with “cannabinoid CB2” for “cannabinoid”, “CB2” for “CB1”, “[^3H]-CP-55,940” for “[3H]-CP-55,940”
as §2

[1] = 10 μM compound, radioligand [3H]-CP-55,940

T1 sequence (P21554 whole entry): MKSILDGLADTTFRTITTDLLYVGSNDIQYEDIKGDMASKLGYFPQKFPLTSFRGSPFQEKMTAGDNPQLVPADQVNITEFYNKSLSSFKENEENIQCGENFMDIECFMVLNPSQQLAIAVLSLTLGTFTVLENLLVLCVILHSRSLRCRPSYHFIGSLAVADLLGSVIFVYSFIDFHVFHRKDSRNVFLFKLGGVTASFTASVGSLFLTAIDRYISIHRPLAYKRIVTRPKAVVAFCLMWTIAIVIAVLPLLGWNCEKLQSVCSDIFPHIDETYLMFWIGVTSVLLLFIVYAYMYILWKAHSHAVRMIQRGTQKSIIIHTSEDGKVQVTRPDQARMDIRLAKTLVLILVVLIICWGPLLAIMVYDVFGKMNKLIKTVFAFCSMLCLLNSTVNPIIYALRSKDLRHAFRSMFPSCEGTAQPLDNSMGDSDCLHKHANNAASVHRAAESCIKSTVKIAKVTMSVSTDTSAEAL
T2 sequence (P34972 whole entry): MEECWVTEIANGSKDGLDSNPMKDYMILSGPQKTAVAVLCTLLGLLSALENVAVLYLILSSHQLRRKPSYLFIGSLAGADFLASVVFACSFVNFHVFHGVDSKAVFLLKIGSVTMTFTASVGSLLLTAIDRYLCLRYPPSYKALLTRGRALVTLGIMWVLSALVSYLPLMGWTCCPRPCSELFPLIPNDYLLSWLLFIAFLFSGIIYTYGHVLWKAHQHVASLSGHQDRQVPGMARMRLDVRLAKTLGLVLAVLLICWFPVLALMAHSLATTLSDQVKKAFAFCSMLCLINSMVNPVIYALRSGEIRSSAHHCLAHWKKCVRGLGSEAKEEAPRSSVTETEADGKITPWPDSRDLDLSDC

Compound	inhibition at 10 µM (human CB1 receptor; [1]) [%]	inhibition at 10 µM (human CB2 receptor) [%]	pEC50 (ABCA1 protein)	inhibition at 10 µM (human CB1 receptor) [%]
COc1cc(CNC(=O)c2cnc(O[C@@H](C)C(F)(F)F)c(-c3ccc(Cl)cc3)c2)on1 [Example 34, (S)-5-(4-chlorophenyl)-N-((3-methoxyisoxazol-5-yl)methyl)-6-(1,1,1-trifluoropropan-2-yloxy)nicotinamide]	33	14	6.11	–
Cc1ccc(-c2cc(C(=O)NCc3nc(C(F)(F)F)no3)cnc2OCC(F)(F)F)cc1 [Example 79, 5-p-tolyl-6-(2,2,2-trifluoroethoxy)-N-((3-(trifluoromethyl)-1,2,4-oxadiazol-5-yl)methyl)nicotinamide]	42	4	5.93	–
CC(C)c1cc(CNC(=O)c2cnc(OCC(F)(F)F)c(-c3ccc(Cl)cc3)c2)no1 [Example 31, 5-(4-chlorophenyl)-N-((5-isopropylisoxazol-3-yl)methyl)-6-(2,2,2-trifluoroethoxy)nicotinamide]	–	11	6.28	47
CCCn1ccc(CNC(=O)c2cnc(OCC(F)(F)F)c(-c3ccc(Cl)cc3)c2)n1 [Example 14, 5-(4-chloro-phenyl)-N-(1-propyl-1H-pyrazol-3-ylmethyl)-6-(2,2,2-trifluoro-ethoxy)-nicotinamide]	48	12	6.02	–
COc1cc(CNC(=O)c2cc(-c3ccc(Cl)c(C)c3)c(OCC(F)(F)F)cn2)on1 [Example 74, 4-(4-chloro-3-methylphenyl)-N-((3-methoxyisoxazol-5-yl)methyl)-5-(2,2,2-trifluoroethoxy)picolinamide]	–	22	5.89	11
C[C@H](Oc1cnc(C(=O)NCc2cc(C(F)(F)F)no2)nc1-c1ccc(Cl)cc1)C(F)(F)F [Example 68, (S)-4-(4-chlorophenyl)-N-((3-(trifluoromethyl)isoxazol-5-yl)methyl)-5-(1,1,1-trifluoropropan-2-yloxy)pyrimidine-2-carboxamide]	45	3	–	–
O=C(NCc1nc(C(F)(F)F)no1)c1cnc(OCC2CC2)c(-c2ccc(F)c(F)c2)c1 [Example 95, 6-(cyclopropylmethoxy)-5-(3,4-difluorophenyl)-N-((3-(trifluoromethyl)-1,2,4-oxadiazol-5-yl)methyl)nicotinamide]	39	21	–	–
CC(C)c1nc(CNC(=O)c2cnc(OCC3CC3)c(-c3ccc(Cl)cc3)c2)no1 [Example 51]	47	2	–	–
O=C(NCc1cc(C(F)(F)F)on1)c1cc(-c2ccc(Cl)cc2)c(OCC(F)(F)F)cn1 [Example 45, 4-(4-chlorophenyl)-5-(2,2,2-trifluoroethoxy)-N-((5-(trifluoromethyl)isoxazol-3-yl)methyl)picolinamide]	–	-2	–	37

Second part, led by results:

inhibition at 10 µM (human CB1 receptor; [1]) [%]	inhibition at 10 µM (human CB2 receptor) [%]	Compound	pEC50 (ABCA1 protein)	inhibition at 10 µM (human CB1 receptor) [%]
40	6	O=C(NCc1nc(C(F)(F)F)no1)c1ccc(OCC(F)(F)F)c(-c2ccc(Cl)cc2)n1 [Example 22, 6-(4-chloro-phenyl)-5-(2,2,2-trifluoro-ethoxy)-pyridine-2-carboxylic acid (3-trifluoromethyl-[1,2,4]oxadiazol-5-ylmethyl)-amide]	5.64	–
32	17	O=C(NCc1cc(C(F)(F)F)no1)c1ncc(OCC(F)(F)F)c(-c2ccc(Cl)cc2)n1 [Example 61, 4-(4-chloro-phenyl)-5-(2,2,2-trifluoro-ethoxy)-pyrimidine-2-carboxylic acid (3-trifluoromethyl-isoxazol-5-ylmethyl)-amide]	6.09	–
45	-6	O=C(NCc1nc(C(F)(F)F)no1)c1cnc(OCC(F)(F)F)c(-c2ccc(Cl)cc2)c1 [Example 15, 5-(4-chloro-phenyl)-6-(2,2,2-trifluoro-ethoxy)-N-(3-trifluoromethyl-[1,2,4]oxadiazol-5-ylmethyl)-nicotinamide]	6.08	–
42	29	O=C(NCc1cc(C2CC2)on1)c1cc(-c2ccc(Cl)cc2)c(OCC(F)(F)F)cn1 [Example 28, 4-(4-chlorophenyl)-N-((5-cyclopropylisoxazol-3-yl)methyl)-5-(2,2,2-trifluoroethoxy)picolinamide]	6.06	–
29	8	CC(C)c1cc(CNC(=O)c2ncc(OCC(F)(F)F)c(-c3ccc(Cl)cc3)n2)on1 [Example 44, 4-(4-chloro-phenyl)-5-(2,2,2-trifluoro-ethoxy)-pyrimidine-2-carboxylic acid (3-isopropyl-isoxazol-5-ylmethyl)-amide]	5.99	–
43	23	CC(C)c1cc(CNC(=O)c2ccc(OCC(F)(F)F)c(-c3ccc(Cl)cc3)n2)no1 [Example 53, 6-(4-chloro-phenyl)-5-(2,2,2-trifluoro-ethoxy)-pyridine-2-carboxylic acid (5-isopropyl-isoxazol-3-ylmethyl)-amide]	–	–
42	19	O=C(NCc1cc(C(F)(F)F)on1)c1ccc(OCC2CC2)c(-c2ccc(Cl)cc2)n1 [Example 58, 6-(4-chloro-phenyl)-5-cyclopropylmethoxy-pyridine-2-carboxylic acid (5-trifluoromethyl-isoxazol-3-ylmethyl)-amide]	–	–
38	15	O=C(NCc1nc(C(F)(F)F)no1)c1ncc(OCC(F)(F)F)c(-c2ccc(Cl)cc2)n1 [Example 16, 4-(4-chloro-phenyl)-5-(2,2,2-trifluoro-ethoxy)-pyrimidine-2-carboxylic acid (3-trifluoromethyl-[1,2,4]oxadiazol-5-ylmethyl)-amide]	–	–
40	22	Cn1cc(Cl)c(CNC(=O)c2cnc(OCC(F)(F)F)c(-c3ccc(Cl)cc3)c2)n1 [Example 26, N-(4-Chloro-1-methyl-1H-pyrazol-3-ylmethyl)-5-(4-chloro-phenyl)-6-(2,2,2-trifluoro-ethoxy)-nicotinamide]	–	–
46	16	O=C(NCc1cc(C2CC2)no1)c1ccc(OCC(F)(F)F)c(-c2ccc(Cl)cc2)n1 [Example 47, 6-(4-chloro-phenyl)-5-(2,2,2-trifluoro-ethoxy)-pyridine-2-carboxylic acid (3-cyclopropyl-isoxazol-5-ylmethyl)-amide]	–	–
36	13	O=C(NCc1cc(C2CC2)no1)c1cc(-c2ccc(Cl)cc2)c(OCC(F)(F)F)nn1 [Example 49, 5-(4-Chloro-phenyl)-6-(2,2,2-trifluoro-ethoxy)-pyridazine-3-carboxylic acid (3-cyclopropyl-isoxazol-5-ylmethyl)-amide]	–	–
